From paper PMC10906037, “Highly Enantioselective Catalysis by Enzyme Encapsulated in Metal Azolate Frameworks with Micelle-Controlled Pore Sizes” (ACS Central Science, 2024)

Biological target: T1, lipase CAL-B (Moesziomyces antarcticus, UniProt P41365)
T1 sequence (P41365 26-342): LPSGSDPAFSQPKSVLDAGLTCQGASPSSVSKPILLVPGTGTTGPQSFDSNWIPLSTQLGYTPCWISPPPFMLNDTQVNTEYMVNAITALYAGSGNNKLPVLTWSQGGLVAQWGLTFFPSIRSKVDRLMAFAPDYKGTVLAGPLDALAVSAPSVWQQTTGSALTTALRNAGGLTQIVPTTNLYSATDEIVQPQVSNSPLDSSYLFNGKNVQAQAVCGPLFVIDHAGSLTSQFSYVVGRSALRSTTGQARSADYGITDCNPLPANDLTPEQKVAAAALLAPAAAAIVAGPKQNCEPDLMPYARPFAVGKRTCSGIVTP
Assay: kinetic resolution, yield
Format: biochemical
Details: free CAL-B; substrate not given

CC(=O)O[C@H](C)c1cccc2ccccc12 [compound 8, product 8]
kinetic resolution, yield: it resulted in a notably lower yield in comparison to free CAL-B
